Molecules are shown by their SMILES.

Type in all cases: functional
Experiment [1] deals with A549. The experiment is described as follows: Induction of apoptosis in human A549 cells assessed as caspase3 expression at 7.4 uM after 2 hrs by ELISA (reference value: 53.45 ng/ml).
In experiment [2] the test system is A549. The experiment is described as follows: Induction of apoptosis in human A549 cells assessed as caspase9 expression at 7.4 uM after 2 hrs by ELISA (reference value: 0.1726 ng/ml). (In an ELISA, binding on a coated surface is turned into a signal by an enzyme label.)
The subject of experiment [3] is A549. The experiment is described as follows: Cell cycle arrest in human A549 cells assessed as accumulation of cells at G0/G1 phase at 2 uM after 24 hrs by propidium iodide staining-based flow cytometric analysis (reference value: 67.62%). A general note: A flow cytometer gives signals particle by particle.
In experiment [4] the test system is A549. Description: Cell cycle arrest in human A549 cells assessed as accumulation of cells at S phase at 2 uM after 24 hrs by propidium iodide staining-based flow cytometric analysis (reference value: 25.26%).
The subject of experiment [5] is A549. Description: Cell cycle arrest in human A549 cells assessed as accumulation of cells at G2/M phase at 2 uM after 24 hrs by propidium iodide staining-based flow cytometric analysis (reference value: 6.2%).
The subject of experiment [6] is A549. The experiment is described as follows: Cell cycle arrest in human A549 cells assessed as accumulation of cells at pre-G1 phase at 2 uM after […] by propidium iodide staining-based flow cytometric analysis (reference value: 0.92%).
For experiment [7], the system named is A549. The experiment is described as follows: Induction of apoptosis in human A549 cells assessed as viable cells at 2 uM after 24 hrs by Annexin V-FITC/propidium iodide staining-based flow cytometric analysis (reference value: 97.5%). The following applies: A549, 24 h, read-out: Activity.
Experiment [8] relates to A549. Description: Induction of apoptosis in human A549 cells assessed as early apoptotic cells at 2 uM after 24 hrs by Annexin V-FITC/propidium iodide staining-based flow cytometric analysis (reference value: 0.52%).
The test system of experiment [9] is A549. Description: Induction of apoptosis in human A549 cells assessed as late apoptotic cells at 2 uM after 24 hrs by Annexin V-FITC/propidium iodide staining-based flow cytometric analysis (reference value: 0.33%).
In experiment [10] the test system is A549. The experiment is described as follows: Induction of apoptosis in human A549 cells assessed as necrotic cells at 2 uM after 24 hrs by Annexin V-FITC/propidium iodide staining-based flow cytometric analysis (reference value: 0.07%).
The test system of experiment [11] is A549. Description: Induction of apoptosis in human A549 cells 24 hrs by propidium iodide staining-based flow cytometric analysis (reference value: 0.92%).

`O=c1[nH]cc(F)c(=O)[nH]1` [FLUOROURACIL]: the Activity was 582.1 ng/mL in the experiment with A549 [1]; 16.84 ng/mL with A549 [2]; 47.36% in the experiment with A549 [3]; 16.08% with A549 [4]; 21.04% in the experiment on A549 [5]; 15.52% in the experiment with A549 [6]. The Activity in the experiment on A549 [8] was found to be 6.37%; with A549 [9], 6.59%; in the experiment with A549 [10] it was 2.52%; with A549 [11], 15.52%. For the same compound, the viability at 2 µM in the experiment on A549 [7] stood at 82.7%.

Source of the values: ChEMBL document CHEMBL4270553, “Synthesis and anticancer activity of new dihydropyrimidinone derivatives” (Eur J Med Chem, 2018).
